The target of one assay is T1, WT FLT3 (Homo sapiens, UniProt P36888).
T1 construct: purchased Invitrogen PR4666C
T1 sequence (P36888 564-993 limits assumed): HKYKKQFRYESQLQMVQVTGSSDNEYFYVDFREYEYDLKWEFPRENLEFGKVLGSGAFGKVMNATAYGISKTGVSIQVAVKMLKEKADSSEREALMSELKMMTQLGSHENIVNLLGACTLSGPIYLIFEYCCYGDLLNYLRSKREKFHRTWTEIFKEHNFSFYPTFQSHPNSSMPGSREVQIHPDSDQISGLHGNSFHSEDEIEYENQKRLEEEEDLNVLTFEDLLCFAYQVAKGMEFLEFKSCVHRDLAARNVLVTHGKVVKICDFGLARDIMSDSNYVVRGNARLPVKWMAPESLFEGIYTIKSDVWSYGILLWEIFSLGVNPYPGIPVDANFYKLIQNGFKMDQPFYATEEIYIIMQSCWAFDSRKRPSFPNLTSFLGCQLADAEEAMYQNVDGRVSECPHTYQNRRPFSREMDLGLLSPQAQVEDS
Briefly: WT FLT3 Lance Ultra TR-FRET kinase assay. Type of assay: biochemical. The method in brief:
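Lance Ultra TR-FRET with 50 nM ULight-JAK-1 (Tyr1023) peptide, Eu-anti-phosphotyrosine (PT66) detection, in HEPES pH 7.5 buffer at 23° C, 30 min enzyme/compound preincubation. WT: 0.5 nM enzyme, 100 μM ATP, 30 min; ITD: 0.0625 nM, 50 μM ATP, 60 min. IC50 by four-parameter fit of 11-point 3× dilutions.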
(TR-FRET usually uses a lanthanide donor and a delayed reading to cut background.)

Another assay concerns MV-4-11. Briefly: Proliferation inhibition, CellTiter-Glo, MV-4-11. Type of assay: cell-based, human. The note with it: Homo sapiens, MV4-11, 96 h; MV-4:11 cells, IC50 (4 days), CellTiter-Glo; read-out: MV-4:11 IC50. In outline: (§1)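 About 10,000 cells per well in RPMI-1640 with 10% FBS. Compounds added 2 h after seeding at eight concentrations in duplicate (0.2% DMSO as 100% proliferation), then incubated ~96 h at 37° C, 5% CO2. ATP measured by CellTiter-Glo luminescence; IC50 from four-parameter logistic fit.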

Another assay concerns K-562. Nature of the assay: Proliferation inhibition, CellTiter-Glo, K-562. Type of assay: cell-based, human. As to conditions: Homo sapiens, K562, 96 h; K-562 cells, IC50 (4 days), CellTiter-Glo; read-out: K-562 IC50. The method in brief:
as §1

The test system of a further assay is MOLM-13. Briefly: Proliferation inhibition, CellTiter-Glo, MOLM-13. Type of assay: cell-based, human. The note with it: Homo sapiens, 96 h; MOLM-13 cells, IC50 (4 days), CellTiter-Glo; read-out: MOLM-13 IC50. In outline:
as §1
On the technique in general: Cellular ATP, detected with luciferase, serves as a proxy for viable cell number.

pIC50: −log10 of the molar value.

On to `CCc1nc(C(N)=O)c(Nc2cccc(CCNC(=O)[C@H](C)N(C)C(=O)/C=C/CN(C)C)c2)nc1N(C)C(C)C` [Compound 204, (S,E)-3-((3-(2-(2-(4-(dimethylamino)-N-methylbut-2-enamido)propanamido)ethyl)phenyl)amino)-6-ethyl-5-(isopropyl(methyl)amino)pyrazine-2-carboxamide], for which the pIC50 against WT FLT3 was 9.70 to 10.00; in the assay on MV-4-11 it was over 9.00; in the assay with K-562, under 6.30; with MOLM-13, over 9.00.

Take `CCc1nc(C(N)=O)c(Nc2cccc([C@@H](C)CNC(=O)CN(C)C(=O)/C=C/CN3CCC3)c2)nc1N(C)CC` [Compound 518, (R,E)-3-((3-(1-(2-(4-(azetidin-1-yl)-N-methylbut-2-enamido)acetamido)propan-2-yl)phenyl)amino)-6-ethyl-5-(ethyl(methyl)amino)pyrazine-2-carboxamide]: the pIC50 on WT FLT3 is 9.30 to 9.70; in the assay with MV-4-11, over 9.00; in the assay on K-562 it was under 6.30; in the assay on MOLM-13, over 9.00.

`Cc1nc(C(N)=O)c(Nc2cccc(CCNC(=O)CN(C)C(=O)/C=C/CN(C)C)c2)nc1N(C)C(C)C` [Compound 250, (E)-3-((3-(2-(2-(4-(dimethylamino)-N-methylbut-2-enamido)acetamido)ethyl)phenyl)amino)-5-(isopropyl(methyl)amino)-6-methylpyrazine-2-carboxamide]: the pIC50 at WT FLT3 was 9.30 to 9.70; in the assay on MV-4-11, over 9.00; in the assay on K-562, under 6.30; with MOLM-13, 8.00 to 9.00.

With `CCc1nc(C(N)=O)c(Nc2ccnc(CCNC(=O)[C@H](C)N(C)C(=O)/C=C/CN(C)C)c2)nc1N(C)C(C)C` [Compound 605, (S, E)-3-((2-(2-(2-(4-(dimethylamino)-N-methylbut-2-enamido)propanamido)ethyl)pyridin-4-yl)amino)-6-ethyl-5-(isopropyl (methyl)amino) pyrazine-2-carboxamide], the pIC50 was 9.30 to 9.70 at WT FLT3, over 9.00 with MV-4-11, under 6.30 with K-562 and over 9.00 with MOLM-13.

What is called pIC50 is the IC50 on a negative log10 scale, so that one unit is a factor of ten.

(Values after US20240262795A1, “PYRAZINE COMPOUNDS AS INHIBITORS OF FLT3” (Biomea Fusion, Inc., priority 2021, published 2024).)
